# Measured values from US10676479B2, “Imidazolepyridine compounds and uses thereof” (Novartis AG, priority 2016, dated 2020).
# Read-outs that look alike come from different tables or passages of the source.
# Assays:
# [1] = molecular target: wild type PRC2 (wtPRC2) complex (Homo sapiens (Human), UniProt O75530); test: EED LC-MS assay; format: biochemical
# Experimental: EED LC-MS Assay Representative compounds of the present invention were serially and separately diluted 3-fold in DMSO to obtain a total of eight or twelve concentrations. […] A 6 μL solution of 3 μM of the peptide substrate H3K27Me0 (histone H3[21-44]-biotin) in reaction buffer was added to initiate each reaction. […] The data were then fit to a dose response equation using the program Helios to get the IC50 values of the test compound.
# [2] = system: H3K27 methylation in G401 cell; test: ELISA (H3K27 methylation) assay; format: cell-based; details: Homo sapiens, G-401, ELISA Qualified assay, 48 h, read-out: (c) IC50
# Method in brief: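 G401 cells given 3-fold serial dilutions (eight or twelve points, top 20 μM) for 48 h. Lysate ELISA for H3K27 methylation normalized to H3 signal, % inhibition versus DMSO, IC50 from dose-response fit.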
# EED (1-441)-His protein = EED (1-441)-His protein (Homo sapiens (Human), UniProt O75530); test: EED-H3K27Me3 peptide competition binding assay by AlphaScreen; details: EED Alphascreen binding Qualified assay
# EED (1-441)-His protein, sequence (O75530 whole entry): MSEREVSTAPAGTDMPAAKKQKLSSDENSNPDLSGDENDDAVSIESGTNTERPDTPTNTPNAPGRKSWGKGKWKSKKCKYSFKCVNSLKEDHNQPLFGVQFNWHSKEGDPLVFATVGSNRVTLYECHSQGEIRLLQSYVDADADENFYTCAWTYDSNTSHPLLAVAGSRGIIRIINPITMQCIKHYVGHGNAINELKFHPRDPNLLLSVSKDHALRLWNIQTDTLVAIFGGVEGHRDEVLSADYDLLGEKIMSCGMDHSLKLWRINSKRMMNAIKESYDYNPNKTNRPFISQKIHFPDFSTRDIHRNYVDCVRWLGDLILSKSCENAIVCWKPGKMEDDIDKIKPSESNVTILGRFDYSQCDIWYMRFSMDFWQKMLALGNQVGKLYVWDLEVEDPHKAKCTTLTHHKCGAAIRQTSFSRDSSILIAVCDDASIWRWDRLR
# [3] = EED LC-MS Qualified assay, read-out: (b) IC50
# wild type PRC2 (wtPRC2) complex, sequence (O75530 whole entry): as above
# wild type PRC2 (wtPRC2) complex, sequence (Q15910 whole entry partner): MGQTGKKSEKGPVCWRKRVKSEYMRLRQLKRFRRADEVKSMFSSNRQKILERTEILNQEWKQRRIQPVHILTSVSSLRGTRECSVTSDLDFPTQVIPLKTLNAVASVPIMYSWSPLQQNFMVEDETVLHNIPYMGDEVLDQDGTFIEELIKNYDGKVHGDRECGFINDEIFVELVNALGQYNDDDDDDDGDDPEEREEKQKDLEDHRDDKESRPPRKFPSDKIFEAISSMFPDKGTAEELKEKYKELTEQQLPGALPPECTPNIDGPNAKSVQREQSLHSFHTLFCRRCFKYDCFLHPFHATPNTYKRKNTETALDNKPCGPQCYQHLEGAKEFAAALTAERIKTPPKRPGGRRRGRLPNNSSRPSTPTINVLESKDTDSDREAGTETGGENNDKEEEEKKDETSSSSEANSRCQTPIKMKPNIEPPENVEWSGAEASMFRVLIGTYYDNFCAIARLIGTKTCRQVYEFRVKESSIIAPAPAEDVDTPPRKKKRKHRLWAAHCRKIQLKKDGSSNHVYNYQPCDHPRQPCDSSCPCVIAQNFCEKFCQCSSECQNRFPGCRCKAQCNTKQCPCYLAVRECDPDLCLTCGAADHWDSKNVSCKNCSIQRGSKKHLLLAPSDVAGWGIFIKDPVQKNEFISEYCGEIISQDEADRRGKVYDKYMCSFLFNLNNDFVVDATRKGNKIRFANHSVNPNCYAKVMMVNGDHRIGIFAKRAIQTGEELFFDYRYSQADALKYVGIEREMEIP
# wild type PRC2 (wtPRC2) complex, sequence (Q15022 whole entry partner): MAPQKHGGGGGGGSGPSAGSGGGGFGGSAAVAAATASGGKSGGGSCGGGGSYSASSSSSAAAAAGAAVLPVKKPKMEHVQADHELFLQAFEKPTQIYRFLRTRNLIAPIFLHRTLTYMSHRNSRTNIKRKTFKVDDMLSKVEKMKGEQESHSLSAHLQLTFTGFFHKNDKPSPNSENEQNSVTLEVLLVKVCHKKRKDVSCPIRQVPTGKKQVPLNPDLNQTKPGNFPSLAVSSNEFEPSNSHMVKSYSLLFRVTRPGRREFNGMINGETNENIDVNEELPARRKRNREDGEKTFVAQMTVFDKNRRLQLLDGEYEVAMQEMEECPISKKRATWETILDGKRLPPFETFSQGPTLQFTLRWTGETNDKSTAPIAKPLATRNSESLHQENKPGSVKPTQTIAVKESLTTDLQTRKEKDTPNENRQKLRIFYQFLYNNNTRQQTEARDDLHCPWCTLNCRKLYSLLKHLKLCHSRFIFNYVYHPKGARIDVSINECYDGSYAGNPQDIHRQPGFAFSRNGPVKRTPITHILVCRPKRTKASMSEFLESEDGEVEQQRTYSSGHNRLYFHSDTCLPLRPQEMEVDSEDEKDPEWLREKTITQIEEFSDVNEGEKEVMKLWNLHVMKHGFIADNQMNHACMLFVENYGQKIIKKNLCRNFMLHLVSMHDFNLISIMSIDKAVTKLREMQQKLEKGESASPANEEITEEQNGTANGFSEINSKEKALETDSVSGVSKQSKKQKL
Compound,"IC50 [1, 3]",IC50 [2],IC50 (EED (1-441)-His protein),IC50 [1]
"N#Cc1ncn2c(NCc3c(F)ccc4c3CCO4)ncc(-c3ccc(CN4CCCC4)cc3)c12 [Example 71, 5-(((5-fluoro-2,3-dihydrobenzofuran-4-yl)methyl)amino)-8-(4-(pyrrolidin-1-ylmethyl)phenyl)imidazo[1,5-c]pyrimidine-1-carbonitrile]",18 nM,4.1 nM,7.9 nM,–
"Cc1ncccc1-c1cnc(NCc2c(F)ccc3c2CCO3)n2cnc(C#C[Si](C)(C)C)c12 [Example 116, N-((5-fluoro-2,3-dihydrobenzofuran-4-yl)methyl)-8-(2-methylpyridin-3-yl)-1-((trimethylsilyl)ethynyl)imidazo[1,5-c]pyrimidin-5-amine]",–,90 nM,8.3 nM,8.7 nM
"Fc1cc(-c2cnc(NCc3c(F)ccc4c3CCO4)n3cncc23)ccn1 [Example 35, N-((5-fluoro-2,3-dihydrobenzofuran-4-yl)methyl)-8-(2-fluoropyridin-4-yl)imidazo[1,5-c]pyrimidin-5-amine]",26 nM,74.4 nM,15.5 nM,–
"CN(C)CCc1ccc(-c2cnc(NCc3c(F)ccc4c3CCO4)n3cncc23)cn1 [Example 32, 8-(6-(2-(dimethylamino)ethyl)pyridin-3-yl)-N-((5-fluoro-2,3-dihydrobenzofuran-4-yl)methyl)imidazo[1,5-c]pyrimidin-5-amine]",24.7 nM,40.4 nM,8.7 nM,–
"Cc1ncccc1-c1cnc(NCc2c(F)ccc3c2CCO3)n2cnc(C#N)c12 [Example 69, 5-(((5-fluoro-2,3-dihydrobenzofuran-4-yl)methyl)amino)-8-(2-methylpyridin-3-yl)imidazo[1,5-c]pyrimidine-1-carbonitrile]",14.1 nM,14.7 nM,9 nM,–
"Fc1ccc2c(c1CNc1ncc(-c3cccnc3)c3cncn13)CCO2 [Example 28, N-((5-fluoro-2,3-dihydrobenzofuran-4-yl)methyl)-8-(pyridin-3-yl)imidazo[1,5-c]pyrimidin-5-amine]",21.8 nM,50.6 nM,19.9 nM,–
"CS(=O)(=O)c1ccc(-c2cnc(NCc3c(F)ccc4c3CCO4)n3cnc(Cl)c23)cc1 [Example 109, 1-chloro-N-((5-fluoro-2,3-dihydrobenzofuran-4-yl)methyl)-8-(4-(methylsulfonyl)phenyl)imidazo[1,5-c]pyrimidin-5-amine]",15 nM,99.4 nM,12.2 nM,–
"Cn1cncc1-c1cnc(NCc2c(F)ccc3c2CCO3)n2cnc(C#N)c12 [Example 85, 5-(((5-fluoro-2,3-dihydrobenzofuran-4-yl)methyl)amino)-8-(1-methyl-1H-imidazol-5-yl)imidazo[1,5-c]pyrimidine-1-carbonitrile]",17.2 nM,2.8 nM,4.5 nM,–
"Cc1cc(-c2cnc(NCc3c(F)ccc4c3CCO4)n3cncc23)ccn1 [Example 24, N-((5-fluoro-2,3-dihydrobenzofuran-4-yl)methyl)-8-(2-methylpyridin-4-yl)imidazo[1,5-c]pyrimidin-5-amine]",26.5 nM,52.1 nM,20.9 nM,–
"CS(=O)(=O)c1ccc(-c2cnc(NCc3c(F)ccc4c3CCO4)n3cnc(-c4ncco4)c23)cc1 [Example 118, N-((5-fluoro-2,3-dihydrobenzofuran-4-yl)methyl)-8-(4-(methylsulfonyl)phenyl)-1-(oxazol-2-yl)imidazo[1,5-c]pyrimidin-5-amine]",5.5 nM,2.6 nM,4.8 nM,–
"CC(C)Oc1ccc(-c2ncn3c(NCc4c(F)ccc5c4CCO5)ncc(-c4ccc(S(C)(=O)=O)cc4)c23)cc1 [Example 117, N-((5-fluoro-2,3-dihydrobenzofuran-4-yl)methyl)-1-(4-isopropoxyphenyl)-8-(4-(methylsulfonyl)phenyl)imidazo[1,5-c]pyrimidin-5-amine]",19.5 nM,58.5 nM,11.4 nM,–
"Cc1cc(S(C)(=O)=O)ccc1-c1cnc(NCc2c(F)ccc3c2CCO3)n2cncc12 [Example 42, N-((5-fluoro-2,3-dihydrobenzofuran-4-yl)methyl)-8-(2-methyl-4-(methylsulfonyl)phenyl)imidazo[1,5-c]pyrimidin-5-amine]",8.5 nM,79.5 nM,10.4 nM,–
"N#Cc1ncn2c(NCc3c(F)ccc4c3CCO4)ncc(-c3ccc(N4CCNCC4)nc3)c12 [Example 86, 5-(((5-fluoro-2,3-dihydrobenzofuran-4-yl)methyl)amino)-8-(6-(piperazin-1-yl)pyridin-3-yl)imidazo[1,5-c]pyrimidine-1-carbonitrile]",17.6 nM,2.5 nM,4.5 nM,–
"OCCNc1ncc(-c2cnc(NCc3c(F)ccc4c3CCO4)n3cncc23)cn1 [Example 44, 2-((5-(5-(((5-fluoro-2,3-dihydrobenzofuran-4-yl)methyl)amino)imidazo[1,5-c]pyrimidin-8-yl)pyrimidin-2-yl)amino)ethan-1-ol]",19.5 nM,64.5 nM,8.6 nM,–
"Cc1c(-c2cnc(NCc3c(F)ccc4c3CCO4)n3cncc23)ccnc1CF [Example 58, N-((5-fluoro-2,3-dihydrobenzofuran-4-yl)methyl)-8-(2-(fluoromethyl)-3-methylpyridin-4-yl)imidazo[1,5-c]pyrimidin-5-amine]",25.2 nM,36.1 nM,14.9 nM,–
"Cc1ncn2c(NCc3c(F)ccc4c3CCO4)ncc(-c3ccc(S(C)(=O)=O)cc3)c12 [Example 4, N-((5-fluoro-2,3-dihydrobenzofuran-4-yl)methyl)-1-methyl-8-(4-(methylsulfonyl)phenyl)imidazo[1,5-c]pyrimidin-5-amine]",29.5 nM,32.5 nM,15.6 nM,–
"Cc1cn(-c2cnc(NCc3c(F)ccc4c3CCO4)n3cncc23)cn1 [Example 62, N-((5-fluoro-2,3-dihydrobenzofuran-4-yl)methyl)-8-(4-methyl-1H-imidazol-1-yl)imidazo[1,5-c]pyrimidin-5-amine]",6.6 nM,13.2 nM,3.7 nM,–
"Cc1nc(C(F)(F)CN2CCCC2)ccc1-c1cnc(NCc2c(F)ccc3c2CCO3)n2cncc12 [Example 59, 8-(6-(1,1-difluoro-2-(pyrrolidin-1-yl)ethyl)-2-methylpyridin-3-yl)-N-((5-fluoro-2,3-dihydrobenzofuran-4-yl)methyl)imidazo[1,5-c]pyrimidin-5-amine]",25.5 nM,98.7 nM,13 nM,–
"CCOC(=O)c1ncn2c(NCc3cc(OC)c(F)cc3F)ncc(-c3cccnc3C)c12 [Example 96, ethyl 5-((2,4-difluoro-5-methoxybenzyl)amino)-8-(2-methylpyridin-3-yl)imidazo[1,5-c]pyrimidine-1-carboxylate]",16.8 nM,114 nM,15.8 nM,–
